Experimental data from ChEMBL document CHEMBL3046937, “Mass spectral characterization of fatty acid amides from alfalfa trichomes and their deterrence against the potato leafhopper” (Phytochemistry, 2005).
The source made the active and inactive calls. The rule behind the calls is not given here.

What was measured:
Format in all cases: functional, organism-based
Empoasca fabae [1] = test: Food deterrence activity against Empoasca fabae (potato leafhopper) assessed as deterring insect settling at 50 ug/cm2 through compound application to surface of sachet containing artificial diet measured at 15 min interval over next 350 min by two-choice bioassay
Empoasca fabae [2] = test: Food deterrence activity against Empoasca fabae (potato leafhopper) assessed as deterring insect settling at 100 ug/cm2 through compound application to surface of sachet containing artificial diet measured at 15 min interval over next 350 min by two-choice bioassay
Empoasca fabae [3] = test: Food deterrence activity against Empoasca fabae (potato leafhopper) assessed as deterring insect settling at 25 ug/cm2 through compound application to surface of sachet containing artificial diet measured at 15 min interval over next 350 min by two-choice bioassay
Empoasca fabae [4] = test: Food deterrence activity against Empoasca fabae (potato leafhopper) assessed as deterring insect settling at 12.5 ug/cm2 through compound application to surface of sachet containing artificial diet measured at 15 min interval over next 350 min by two-choice bioassay
Empoasca fabae [5] = test: Food deterrence activity against Empoasca fabae (potato leafhopper) assessed as deterring insect settling at 12.5 to 100 ug/cm2 through compound application to surface of sachet containing artificial diet measured at 15 min interval over next 350 min by two-choice bioassay

Compound: CCCCC/C=C\C/C=C\CCCCCCCC(=O)NCCC(C)C
- Activity (Empoasca fabae [1]): Active
- Activity (Empoasca fabae [2]): Active
- Activity (Empoasca fabae [3]): Active
- Activity (Empoasca fabae [4]): inactive
- Activity (Empoasca fabae [5]): Dose-dependent effect
